Laboratory results from patent publication US4204003A, “N-(2-Aminocyclopentyl)-N-alkanoylanilides as CNS anti-depressants” (The Upjohn Company, priority 1978, dated 1980).

Key:
[1] = rat liver microsome incubation system (metabolism); type: in vitro ADME; conditions: from the corresponding N-[2-(dimethylamino)cyclopentyl]propionanilide compound
yohimbine toxicity = experiment: standard yohimbine toxicity potentiation test; type: in vivo; conditions: ip; intraperitoneally
oxotremorine hypothermia = experiment: standard oxotremorine hypothermia antagonism test; type: in vivo; conditions: ip; intraperitoneally
[2] = literature (J. Pharmaceutical Sciences, December 1974); cited from earlier work
[3] = literature (J. Pharmaceutical Sciences, December 1974); cited from earlier work; remark: listed apart in the source

Molecule	ED50 (yohimbine toxicity)	ED50 (oxotremorine hypothermia)	also measured
2-(N-methylamino)cyclopentylpropionanilide	–	–	metabolite formed in rat liver microsome incubation [1]: is a metabolite of the corresponding N-[2-(dimethylamino)cyclopentyl]propionanilide compound
CCC(=O)N(c1ccc(Cl)c(Cl)c1)[C@@H]1CCC[C@H]1N (relative stereo) [Trans-3,4-dichloro-N-(2-aminocyclopentyl)-propionanilide]	< 1 mg/kg	< 1 mg/kg	–
CCC(=O)N(c1ccc(Cl)c(Cl)c1)[C@@H]1CCC[C@H]1NC (relative stereo) [Trans-3,4-dichloro-N-[2-(N-methylamino)-cyclopentyl]propionanilide]	< 1 mg/kg	< 1 mg/kg	–
ON(c1ccccc1)C1CCCCC1N1CCCC1 (stereo not shown) [N-[2-(N-pyrrolidinyl)cyclohexyl]-N-phenylhydroxylamine]	–	–	CNS properties [2]: do not have useful CNS properties
COc1ccc(C(O)C2CCCCC2N2CCCCC2)cc1 (stereo not shown) [[2-(N-piperidinylcyclohexyl]-(4-methoxyphenyl)methanol]	–	–	diuretic activity [3]: Diuretic activity is alleged
